Values quoted from earlier work in patent publication US20230270851A1, “METHODS FOR THE TREATMENT OF IDIOPATHIC ORBITAL INFLAMMATION AND RELATED CONDITIONS” (HORIZON THERAPEUTICS IRELAND DAC, priority 2020, published 2023).

Legend:
[1] = target: ALK (Homo sapiens, UniProt Q9UM73); conditions: cited from earlier work
[2] = test system: neuroblastoma; conditions: cited from earlier work
[3] = target: IGF-1R (Homo sapiens, UniProt P08069); conditions: A-928605: purified enzyme; INSM-18: receptor activation; cited from earlier work
[4] = test system: tumors; conditions: in vivo; cited from earlier work
[5] = cited from earlier work
[6] = target: IGF-IR (Homo sapiens, UniProt P08069); conditions: cited from earlier work
[7] = test system: susceptible tumor cell populations; conditions: cited from earlier work
[8] = target: c-erbB2/HER2/neu receptor (Homo sapiens, UniProt P04626); conditions: cited from earlier work
[9] = test system: IGF-1 R-overexpressing tumor cells; conditions: cited from earlier work

Chain of IGF-1R (P08069 31-1367): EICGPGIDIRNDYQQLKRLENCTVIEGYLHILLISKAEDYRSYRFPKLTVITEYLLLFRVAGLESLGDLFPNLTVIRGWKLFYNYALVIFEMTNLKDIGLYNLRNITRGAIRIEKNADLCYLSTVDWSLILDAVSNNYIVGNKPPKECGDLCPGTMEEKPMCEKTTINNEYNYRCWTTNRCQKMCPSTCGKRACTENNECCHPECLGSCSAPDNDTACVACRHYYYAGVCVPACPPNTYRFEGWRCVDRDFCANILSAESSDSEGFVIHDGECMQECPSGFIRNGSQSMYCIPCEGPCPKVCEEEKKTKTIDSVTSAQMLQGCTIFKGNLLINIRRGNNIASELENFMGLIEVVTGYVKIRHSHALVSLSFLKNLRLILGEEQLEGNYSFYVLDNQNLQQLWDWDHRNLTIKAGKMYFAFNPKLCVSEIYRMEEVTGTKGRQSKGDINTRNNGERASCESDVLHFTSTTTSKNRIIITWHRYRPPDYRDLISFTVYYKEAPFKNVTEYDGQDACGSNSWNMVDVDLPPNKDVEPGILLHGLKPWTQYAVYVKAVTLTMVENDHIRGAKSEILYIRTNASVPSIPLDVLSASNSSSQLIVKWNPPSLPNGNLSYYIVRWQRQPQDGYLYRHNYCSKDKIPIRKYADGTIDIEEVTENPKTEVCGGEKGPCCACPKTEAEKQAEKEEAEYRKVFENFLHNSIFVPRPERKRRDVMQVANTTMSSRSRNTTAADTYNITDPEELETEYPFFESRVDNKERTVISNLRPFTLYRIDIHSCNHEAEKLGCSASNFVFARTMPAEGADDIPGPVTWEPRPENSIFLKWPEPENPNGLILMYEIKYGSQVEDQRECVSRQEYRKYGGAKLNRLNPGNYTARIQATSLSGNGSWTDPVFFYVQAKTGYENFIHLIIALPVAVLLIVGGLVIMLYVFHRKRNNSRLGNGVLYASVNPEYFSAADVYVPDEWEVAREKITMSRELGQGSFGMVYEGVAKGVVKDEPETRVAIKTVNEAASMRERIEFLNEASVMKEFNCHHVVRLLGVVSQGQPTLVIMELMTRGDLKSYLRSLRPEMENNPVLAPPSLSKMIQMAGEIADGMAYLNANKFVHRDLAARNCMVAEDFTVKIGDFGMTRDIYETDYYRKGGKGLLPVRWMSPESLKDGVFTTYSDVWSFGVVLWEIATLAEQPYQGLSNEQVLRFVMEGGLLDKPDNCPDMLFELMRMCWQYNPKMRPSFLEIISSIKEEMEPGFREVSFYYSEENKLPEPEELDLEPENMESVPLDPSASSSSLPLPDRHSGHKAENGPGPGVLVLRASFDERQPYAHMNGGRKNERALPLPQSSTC
Chain of ALK (Q9UM73 19-1620, species assumed): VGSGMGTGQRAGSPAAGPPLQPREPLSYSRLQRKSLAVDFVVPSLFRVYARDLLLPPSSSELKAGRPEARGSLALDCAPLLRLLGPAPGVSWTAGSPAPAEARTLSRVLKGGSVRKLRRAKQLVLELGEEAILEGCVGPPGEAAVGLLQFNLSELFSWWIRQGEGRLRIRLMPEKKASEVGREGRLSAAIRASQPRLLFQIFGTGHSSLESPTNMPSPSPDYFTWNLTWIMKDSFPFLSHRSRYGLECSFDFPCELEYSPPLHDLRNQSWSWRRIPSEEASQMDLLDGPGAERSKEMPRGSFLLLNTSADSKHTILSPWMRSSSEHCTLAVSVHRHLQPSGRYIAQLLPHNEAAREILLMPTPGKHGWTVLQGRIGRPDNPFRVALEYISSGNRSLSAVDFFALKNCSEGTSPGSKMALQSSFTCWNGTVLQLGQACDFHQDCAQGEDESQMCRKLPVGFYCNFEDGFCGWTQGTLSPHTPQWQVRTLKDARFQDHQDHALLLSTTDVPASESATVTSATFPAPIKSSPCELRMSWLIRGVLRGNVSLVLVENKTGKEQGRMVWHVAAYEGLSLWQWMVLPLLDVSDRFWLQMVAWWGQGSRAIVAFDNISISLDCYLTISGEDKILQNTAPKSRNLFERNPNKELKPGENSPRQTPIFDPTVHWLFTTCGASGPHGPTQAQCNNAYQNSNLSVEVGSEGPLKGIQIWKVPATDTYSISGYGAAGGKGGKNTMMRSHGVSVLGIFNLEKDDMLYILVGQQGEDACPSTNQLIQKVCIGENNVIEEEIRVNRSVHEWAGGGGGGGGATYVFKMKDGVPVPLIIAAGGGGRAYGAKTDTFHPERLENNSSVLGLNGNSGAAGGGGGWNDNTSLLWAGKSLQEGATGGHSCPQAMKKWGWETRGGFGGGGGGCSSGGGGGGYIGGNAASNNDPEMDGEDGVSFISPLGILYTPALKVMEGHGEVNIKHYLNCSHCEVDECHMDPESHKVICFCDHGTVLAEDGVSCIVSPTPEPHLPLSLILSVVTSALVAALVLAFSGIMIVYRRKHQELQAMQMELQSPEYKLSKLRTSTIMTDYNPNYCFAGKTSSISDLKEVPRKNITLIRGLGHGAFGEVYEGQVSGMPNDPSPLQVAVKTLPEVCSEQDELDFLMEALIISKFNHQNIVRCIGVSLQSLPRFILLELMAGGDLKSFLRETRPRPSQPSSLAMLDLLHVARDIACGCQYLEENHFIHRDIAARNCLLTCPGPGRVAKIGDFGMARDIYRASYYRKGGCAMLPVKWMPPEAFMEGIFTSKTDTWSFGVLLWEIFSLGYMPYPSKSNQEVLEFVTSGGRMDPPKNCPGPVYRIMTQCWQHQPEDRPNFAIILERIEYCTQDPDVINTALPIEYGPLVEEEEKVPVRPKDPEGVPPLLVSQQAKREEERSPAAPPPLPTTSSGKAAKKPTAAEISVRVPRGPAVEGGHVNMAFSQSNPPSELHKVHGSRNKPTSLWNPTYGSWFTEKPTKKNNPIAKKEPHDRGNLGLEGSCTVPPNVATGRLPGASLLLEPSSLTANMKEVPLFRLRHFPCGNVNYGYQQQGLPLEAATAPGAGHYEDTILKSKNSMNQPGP
Chain of IGF-IR (P08069 31-1367): as the sequence (P08069 31-1367) above
Chain of c-erbB2/HER2/neu receptor (P04626 23-1255): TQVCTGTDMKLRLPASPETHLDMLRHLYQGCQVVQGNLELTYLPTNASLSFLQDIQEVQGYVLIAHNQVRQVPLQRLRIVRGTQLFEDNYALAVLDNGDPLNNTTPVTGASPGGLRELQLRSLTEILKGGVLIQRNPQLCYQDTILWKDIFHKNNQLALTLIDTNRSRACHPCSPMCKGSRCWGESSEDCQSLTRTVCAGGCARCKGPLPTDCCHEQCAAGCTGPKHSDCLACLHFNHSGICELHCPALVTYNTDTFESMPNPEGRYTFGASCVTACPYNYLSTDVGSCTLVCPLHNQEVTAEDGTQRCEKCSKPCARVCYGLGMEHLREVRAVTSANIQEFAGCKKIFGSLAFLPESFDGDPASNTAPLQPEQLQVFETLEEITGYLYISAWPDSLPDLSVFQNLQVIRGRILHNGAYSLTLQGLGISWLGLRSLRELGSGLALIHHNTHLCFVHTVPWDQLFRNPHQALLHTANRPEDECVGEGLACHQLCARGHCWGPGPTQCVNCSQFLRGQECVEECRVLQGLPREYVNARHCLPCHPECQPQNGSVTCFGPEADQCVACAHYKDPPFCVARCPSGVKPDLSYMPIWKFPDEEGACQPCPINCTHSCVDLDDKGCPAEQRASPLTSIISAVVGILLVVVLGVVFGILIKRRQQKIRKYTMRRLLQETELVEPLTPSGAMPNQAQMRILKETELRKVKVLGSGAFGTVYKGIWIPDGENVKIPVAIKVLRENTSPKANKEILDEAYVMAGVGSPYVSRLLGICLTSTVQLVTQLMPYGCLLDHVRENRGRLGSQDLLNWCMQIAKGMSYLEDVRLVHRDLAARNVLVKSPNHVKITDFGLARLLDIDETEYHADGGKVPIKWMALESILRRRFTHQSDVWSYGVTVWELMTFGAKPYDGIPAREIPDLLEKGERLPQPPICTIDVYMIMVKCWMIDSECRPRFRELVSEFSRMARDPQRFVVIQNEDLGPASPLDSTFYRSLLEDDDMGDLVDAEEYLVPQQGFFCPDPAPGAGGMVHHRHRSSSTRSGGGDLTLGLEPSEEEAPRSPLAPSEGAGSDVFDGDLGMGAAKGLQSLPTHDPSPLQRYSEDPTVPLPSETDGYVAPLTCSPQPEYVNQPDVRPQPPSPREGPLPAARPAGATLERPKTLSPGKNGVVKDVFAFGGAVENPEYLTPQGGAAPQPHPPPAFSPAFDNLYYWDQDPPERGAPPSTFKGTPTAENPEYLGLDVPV

For `COc1cc(N2CCC(N)CC2)ccc1Nc1ncc(Cl)c(-c2c[nH]c3ccccc23)n1` [AZD3463], the “inhibition of ALK” value [1] is given as “potent”, the apoptosis ([2]; neuroblastoma) is given as “inducing apoptosis” and the neuroblastoma growth ([2]; overcoming crizotinib resistance) is given as “inhibition of neuroblastoma growth”. The “inhibition of IGF-1R” value [3] was “potent”.
For `COCCN1CCN(CCn2ccc(Nc3ncc4c(n3)[C@@H](C)Cc3nn(C)c(-c5ccccc5)c3-4)n2)CC1` [BI885578], the apoptosis in tumors [4] is listed as “induction of apoptosis”, the “cell proliferation in tumors” value [4] is listed as “inhibition of cell proliferation” and the in vivo half-life [5] is listed as “short”. For the same molecule, the intestinal absorption ([5]; in vivo) was “rapid” and the metabolic clearance ([5]; in vivo) was “rapid”.
In the case of `Nc1ncnc2c1c(-c1ccc3[nH]c(Cc4ccccc4Cl)nc3c1)nn2[C@H]1CC[C@H](N2CCOCC2)CC1` [Example A-928605], the “inhibition of IGF-1R” value [3] is given as “potent inhibitor” and the “inhibition of intracellular IGF-IR phosphorylation” value [6] is given as “potent inhibitor”.
For `C[C@H](Cc1ccc(O)c(O)c1)[C@@H](C)Cc1ccc(O)c(O)c1` [INSM-18, nordihydroguaiaretic acid], the “proliferation of susceptible tumor cell populations” value [7] is given as “decreased proliferation”, the “inhibition of activation of the c-erbB2/HER2/neu receptor” value [8] is given as “directly inhibits activation” and the “inhibition of IGF-1R” value [3] is given as “directly inhibits activation”.
For `CCOC(=O)N1CCC(Nc2cc(Cl)cc3c(S(=O)(=O)N4CCO[C@H](COc5ccccc5)C4)c(C(N)=O)[nH]c23)CC1` [PL-225B], the tumor cell apoptosis [9] is listed as “induction of tumor cell apoptosis”, the tumor cell proliferation [9] is listed as “inhibition of tumor cell proliferation” and the “inhibition of IGF-1R” value [3] is listed as “selectively inhibits”.
